Assay results published in paper PMC2866539, “HLA Class I Binding 9mer Peptides from Influenza A Virus Induce CD4^+ T Cell Responses” (PLoS ONE, 2010).
Where no end group is shown, it is not given here.

How the values were obtained:
Test in all cases: biochemical
Type in all cases: binding
[1] = molecular target: DRA1*0101/DRB3*0301 (Homo sapiens, UniProt P01903+P79483, A169T/A212P/D57E/G115V/L67V/Q178H/R103Q/R40L/Y55F)
[2] = molecular target: T1, DRA1*0101/DRB1*0101 (Homo sapiens, UniProt P01903+P01911, A100R/D57E/F55L/F60I/F76Y/I96L/L162R/M171V/P40L/Q125E/R42F/V115G/Y59C)
T1 construct: made in house

[3] = molecular target: DRA1*0101/DRB1*0301 (Homo sapiens, UniProt P01903+P01911, A100K/A102G/A103R/A169T/F55Y/I96L/K41T/L162R/M171V/P40S/Q125H/Q178H/Q39Y/R42S/S66N/T106N/T262R/W38E/Y61H)
DRA1*0101/DRB1*0301, sequence (P01903 26-254 limits assumed, other chains not shown): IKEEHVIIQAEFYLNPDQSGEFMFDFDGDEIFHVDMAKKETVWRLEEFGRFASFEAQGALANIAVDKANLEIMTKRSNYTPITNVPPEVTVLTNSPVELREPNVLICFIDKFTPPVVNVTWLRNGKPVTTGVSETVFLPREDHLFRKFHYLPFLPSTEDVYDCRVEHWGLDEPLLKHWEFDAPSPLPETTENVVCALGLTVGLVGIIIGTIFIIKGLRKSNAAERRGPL

[4] = molecular target: T2, DRA1*0101/DRB1*0401 (Homo sapiens, UniProt P01903+P01911, A100K/A169T/F76Y/I96L/K127E/L162R/M171V/N62H/P40V/Q125Y/R42H/S133A/S149N/S66Y/V115G/V209L/W38E)
T2 construct: made in house

[5] = molecular target: DRA1*0101/DRB1*0302 (Homo sapiens, UniProt P01903+P01911, A100K/A102G/A103R/A169T/D57E/F76Y/I96L/K41T/L162R/M171V/P40S/Q125H/Q178H/Q39Y/R42S/S66N/T106N/T262R/V115G/W38E/Y61H)

DRA1*0101/DRB3*0301, sequence (P01903 26-254 limits assumed): as the sequence (P01903 26-254 limits assumed, other chains not shown) above
DRA1*0101/DRB3*0301, sequence (P79483 30-266 R40L/Y55F/D57E/L67V/R103Q/G115V/A169T/Q178H/A212P limits assumed): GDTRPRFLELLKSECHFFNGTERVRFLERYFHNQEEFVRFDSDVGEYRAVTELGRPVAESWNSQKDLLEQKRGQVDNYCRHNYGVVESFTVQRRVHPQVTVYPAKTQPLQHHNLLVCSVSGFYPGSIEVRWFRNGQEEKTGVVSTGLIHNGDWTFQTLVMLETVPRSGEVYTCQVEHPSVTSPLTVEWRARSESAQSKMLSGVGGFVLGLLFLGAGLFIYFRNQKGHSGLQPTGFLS

Sequence “YILLKKILSSRFNQM [hypothetical protein 239–253, reference compound]” has a Kd [1] of 0.003 µM, a Kd [2] of 0.435 µM and a Kd [3] of 0.02 µM. For the same sequence, the Kd [4] was 0.107 µM and the Kd [5] was 0.156 µM.
